The values below come from PubChem BioAssay (NCI).

Among the test systems are COLO 205 colon; OVCAR-8 ovarian; CCRF-CEM leukemia; OVCAR-5 ovarian; NCI-H23 lung; HCT-15 colon; UACC-257 melanoma; CAKI-1 renal; SNB-75 CNS; U251 CNS; MOLT-4 leukemia; K-562 leukemia; MDA-MB-435; MDA-MB-231 breast; PC-3 prostate; MCF7 breast; T-47D breast; OVCAR-4 ovarian; BT-549 breast.
Assay in all cases: DTP human tumour cell line panel, 48 h

Each structure is given as a SMILES string. “And” between values parts separate entries of the source, which are not always exact repeats. Equal entries are not always repeated.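 Briefly, cells in 96-well plates were exposed to five compound concentrations for 48 h, and endpoints were estimated by linear interpolation. GI50: concentration for 50% inhibition of growth. Definition used: TGI = concentration required for complete inhibition of growth.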

A word on the TGI: it is the concentration giving total growth inhibition. The low end stands for more potent growth arrest, the high end for less potent growth arrest. As to `O=C1NCC2=C1CCC1c3ccccc3CCN21` (configuration not stated), the TGI in the assay on COLO 205 colon, with OVCAR-8 ovarian, in the assay on CCRF-CEM leukemia, in the assay with OVCAR-5 ovarian, with NCI-H23 lung and with HCT-15 colon was more than 100 µM each time. The TGI with UACC-257 melanoma, in the assay on CAKI-1 renal, in the assay with SNB-75 CNS, in the assay with U251 CNS and in the assay on MOLT-4 leukemia was more than 100 µM each time.

In the case of `COC(=O)C1CCCCCCCCCCC12SCCCS2` (configuration not stated), the TGI was found to be 37.4 µM with COLO 205 colon; 56.7 µM in the assay on K-562 leukemia; 48.8 µM with OVCAR-8 ovarian; 36.2 µM in the assay on MDA-MB-435; 45.2 µM in the assay on MDA-MB-231 breast; 51.1 µM in the assay on CCRF-CEM leukemia. Moreover, the TGI with PC-3 prostate is 50 µM; in the assay on OVCAR-5 ovarian it was 34.7 µM; in the assay with NCI-H23 lung, more than 100 µM; in the assay on MCF7 breast, more than 100 µM; with HCT-15 colon, more than 100 µM; in the assay with T-47D breast, more than 100 µM. Further, the TGI was 38.7 µM in the assay with OVCAR-4 ovarian; 40.2 µM in the assay on UACC-257 melanoma; 96.3 µM in the assay with CAKI-1 renal; 81.2 µM in the assay on SNB-75 CNS; 32.1 µM in the assay with U251 CNS; 45 µM in the assay on MOLT-4 leukemia.

Take `C[C@H]1ON2CCC[C@@H]2[C@@H]1C(=O)N1C2CC3CCC2(CS1(=O)=O)C3(C)C` (some centres not stated): the TGI in the assay on COLO 205 colon, in the assay with K-562 leukemia, in the assay on OVCAR-8 ovarian, in the assay on MDA-MB-435, in the assay on MDA-MB-231 breast and in the assay with CCRF-CEM leukemia was more than 100 µM throughout. Also, the TGI with PC-3 prostate, in the assay on OVCAR-5 ovarian, with NCI-H23 lung, in the assay on MCF7 breast, in the assay with HCT-15 colon and in the assay on T-47D breast was more than 100 µM in each case. For the same compound, the TGI in the assay on OVCAR-4 ovarian, in the assay with UACC-257 melanoma, in the assay on CAKI-1 renal, in the assay on SNB-75 CNS and in the assay on U251 CNS was more than 100 µM throughout.

As for `O=C1C2=Cc3ccccc3CCN2c2ccc([N+](=O)[O-])cc21`, the TGI with COLO 205 colon, in the assay with K-562 leukemia, in the assay with OVCAR-8 ovarian, in the assay with MDA-MB-435, in the assay with MDA-MB-231 breast and in the assay on CCRF-CEM leukemia was more than 100 µM throughout. Also, the TGI with PC-3 prostate, in the assay with OVCAR-5 ovarian, in the assay on NCI-H23 lung, in the assay on MCF7 breast, with HCT-15 colon and in the assay on OVCAR-4 ovarian was more than 100 µM each time. For the same compound, the TGI in the assay on UACC-257 melanoma, in the assay with CAKI-1 renal, in the assay on SNB-75 CNS, with U251 CNS and in the assay with MOLT-4 leukemia was more than 100 µM each time.

With `COC(=O)[C@H]1[C@H](OC(=O)[C@@H](OC)c2ccccc2)ON2CC[C@@H](OC(=O)c3ccccc3)[C@H]12`, the TGI in the assay on COLO 205 colon, in the assay with K-562 leukemia, in the assay on OVCAR-8 ovarian, in the assay on MDA-MB-435, in the assay on MDA-MB-231 breast and in the assay on CCRF-CEM leukemia was more than 100 µM in each case. Further, the TGI is more than 100 µM in the assay on PC-3 prostate; more than 100 µM in the assay on OVCAR-5 ovarian; more than 100 µM with NCI-H23 lung; 22 µM in the assay with MCF7 breast; more than 100 µM in the assay on HCT-15 colon; more than 100 µM with T-47D breast. The TGI is more than 100 µM in the assay on OVCAR-4 ovarian; more than 100 µM in the assay with UACC-257 melanoma; more than 100 µM in the assay with CAKI-1 renal; 65.1 µM in the assay with SNB-75 CNS; more than 100 µM in the assay with U251 CNS; more than 100 µM with MOLT-4 leukemia.

Take `CC1(C)CC(C2CC(C)(C)CC(C)(C)[C@H]2O)[C@@H](O)C(C)(C)C1` (some centres not stated): the TGI with COLO 205 colon, in the assay with K-562 leukemia, with OVCAR-8 ovarian, in the assay on CCRF-CEM leukemia, with NCI-H23 lung and in the assay on HCT-15 colon was more than 100 µM each time. Also, the TGI with UACC-257 melanoma, in the assay with U251 CNS and in the assay on MOLT-4 leukemia was more than 100 µM throughout.

Take `COc1ccc(-n2c(-c3ccccc3)cc(-c3cccs3)c2-c2cccs2)cc1`: the TGI was more than 100 µM in the assay on COLO 205 colon; more than 100 µM with OVCAR-8 ovarian; more than 100 µM with MDA-MB-435; more than 100 µM in the assay on MDA-MB-231 breast; 32.7 µM in the assay on CCRF-CEM leukemia; more than 100 µM in the assay on OVCAR-5 ovarian. Moreover, the total growth inhibition concentration (TGI) in the assay with NCI-H23 lung is 95.7 µM; in the assay on MCF7 breast, more than 100 µM; in the assay with HCT-15 colon, more than 100 µM; in the assay with T-47D breast, more than 100 µM; in the assay with OVCAR-4 ovarian it was more than 100 µM; with UACC-257 melanoma, more than 100 µM. Moreover, the TGI with CAKI-1 renal, with SNB-75 CNS, in the assay with U251 CNS and in the assay on MOLT-4 leukemia was more than 100 µM in each case.

Take `COc1ccc(/C=N/Nc2nc3ccccc3c(=O)n2-c2ccccc2)cc1`: the TGI in the assay on COLO 205 colon, in the assay on K-562 leukemia, in the assay on OVCAR-8 ovarian, in the assay on MDA-MB-435, with MDA-MB-231 breast and in the assay with CCRF-CEM leukemia was more than 100 µM throughout. Also, the TGI in the assay with PC-3 prostate is more than 100 µM; with OVCAR-5 ovarian, more than 100 µM; with NCI-H23 lung it was more than 100 µM; with MCF7 breast it was 40.5 µM; with HCT-15 colon, more than 100 µM; in the assay with T-47D breast, more than 100 µM. Moreover, the TGI in the assay on OVCAR-4 ovarian, in the assay on UACC-257 melanoma, in the assay on CAKI-1 renal, in the assay on SNB-75 CNS, with U251 CNS and in the assay on MOLT-4 leukemia was more than 100 µM throughout.

Regarding `O=C(CC(C(=O)c1ccsc1)c1cccs1)c1ccsc1` (configuration not stated), the TGI in the assay with COLO 205 colon, in the assay on K-562 leukemia, in the assay on OVCAR-8 ovarian, with MDA-MB-435, with MDA-MB-231 breast and in the assay on CCRF-CEM leukemia was more than 100 µM each time. Also, the TGI in the assay on PC-3 prostate was more than 100 µM; in the assay on OVCAR-5 ovarian it was more than 100 µM; in the assay on NCI-H23 lung it was more than 100 µM; in the assay on MCF7 breast it was more than 100 µM; in the assay on HCT-15 colon it was more than 100 µM; in the assay on T-47D breast it was 84.3 µM. The TGI in the assay with OVCAR-4 ovarian, in the assay on UACC-257 melanoma, with CAKI-1 renal, in the assay with SNB-75 CNS, in the assay with U251 CNS and in the assay with MOLT-4 leukemia was more than 100 µM throughout.

What is called GI50 is the concentration that inhibits growth by half. Regarding `COc1cc(-c2c(C(C)=O)c(-c3ccccc3)n(C3OC(COC(C)=O)C(OC(C)=O)C(OC(C)=O)C3OC(C)=O)c(=S)c2C#N)ccc1O` (configuration not stated), the TGI with COLO 205 colon, in the assay with K-562 leukemia, with MDA-MB-435, with CCRF-CEM leukemia, with PC-3 prostate and in the assay on OVCAR-5 ovarian was more than 100 µM in each case. The TGI in the assay with NCI-H23 lung, with MCF7 breast, in the assay with HCT-15 colon, in the assay on OVCAR-4 ovarian, with UACC-257 melanoma and in the assay with CAKI-1 renal was more than 100 µM in each case. For the same compound, the TGI in the assay on U251 CNS is more than 100 µM; with MOLT-4 leukemia, more than 100 µM; in the assay with BT-549 breast it was 82.4 µM. Further, the GI50 in the assay on UACC-257 melanoma was > 100 µM and 34.9 µM.

`c1ccc(NC2(c3nnnn3C3CCCCC3)CCNCC2)cc1`: the TGI with COLO 205 colon was 40.9 µM; with OVCAR-8 ovarian, 81.9 µM; with MDA-MB-435, 38 µM; in the assay with MDA-MB-231 breast, more than 100 µM; in the assay with CCRF-CEM leukemia it was 55.4 µM; in the assay with OVCAR-5 ovarian it was 43.4 µM. Also, the TGI in the assay with NCI-H23 lung is 52.4 µM; with MCF7 breast, 35.1 µM; in the assay with HCT-15 colon, 51.6 µM; with T-47D breast it was 52.1 µM; with OVCAR-4 ovarian, more than 100 µM; in the assay with UACC-257 melanoma it was 30.6 µM. Besides, the results for the concentration for total growth inhibition (TGI) in the assay on SNB-75 CNS, in the assay with U251 CNS and with MOLT-4 leukemia were 32.7 µM, 31.5 µM and 43.5 µM, respectively.

Take `CSC(=S)Nc1cc(C)ccn1`: the TGI in the assay on COLO 205 colon was more than 100 µM; in the assay with K-562 leukemia it was more than 100 µM; in the assay with OVCAR-8 ovarian it was more than 100 µM; in the assay on MDA-MB-435, more than 100 µM; with MDA-MB-231 breast, 88.8 µM; with CCRF-CEM leukemia, more than 100 µM. Also, the TGI in the assay on PC-3 prostate, with OVCAR-5 ovarian, in the assay with NCI-H23 lung, with MCF7 breast, in the assay on HCT-15 colon and with T-47D breast was more than 100 µM in each case. The TGI with OVCAR-4 ovarian, with UACC-257 melanoma, in the assay on CAKI-1 renal, in the assay with SNB-75 CNS, with U251 CNS and with MOLT-4 leukemia was more than 100 µM in each case.

Consider `COc1ccc(-c2c(C(=O)Nc3ccccc3)c(-c3ccccc3)n(C3OC(CO)C(O)C(O)C3O)c(=S)c2C#N)cc1` (configuration not stated), for which the TGI in the assay with COLO 205 colon, in the assay with K-562 leukemia, with OVCAR-8 ovarian, with MDA-MB-435, in the assay with CCRF-CEM leukemia and with PC-3 prostate was more than 100 µM each time. The TGI in the assay with OVCAR-5 ovarian, with NCI-H23 lung, in the assay with MCF7 breast, with HCT-15 colon, in the assay with OVCAR-4 ovarian and with UACC-257 melanoma was more than 100 µM each time. Moreover, the TGI in the assay on CAKI-1 renal, in the assay on U251 CNS, with MOLT-4 leukemia and in the assay on BT-549 breast was more than 100 µM throughout.
